Patent publication US3995061A, “Pharmaceutical composition and method of using the same” (Chugai Seiyaku Kabushiki Kaisha, priority 1974, dated 1976)

Legend:
Cholesterol in serum = test: Serum cholesterol lowering activity in rats on high-fat feed, single oral dose; type: in vivo, Wister-Imamich strain male rats; details: rat, 75 mg/kg oral, 6 hours after administration
Excerpt: The cholesterol lowering activity of the ascochlorin derivatives of this invention was observed by the use of Wister-Imamich strain male rats weighing 230 ± 30 g which had been bred with the use of high-fat feed comprising 1000 g of powdery chow CLEA CE-2 (sold by NIHON CLEA KABUSHIKI KAISHA) admixed with 10 g of cholesterol, 95 g of hydrogenated coconut oil, 2 g of cholic acid, 150 g of milk casein and 671 g of sucrose.
The rats were divided into groups of five members each, and orally administered with a different ascochlorin derivative as a suspension in gum arabic aqueous solution in a dose of 75 mg/kg.body weight. The rats were kept from eating food, and 6 hours after the administration, the blood of each rat was sampled from its heart. The total amount of cholesterol in serum was determined by a modified Zurkowski method (Clinical Chemistry, 10, 451, 1964) with the use of a colorimeter for blood analysis (sold by KYOTO DAIICHI KAGAKU).

blood platelet = test: Aggregation inhibition activity of blood platelet (ADP-induced, platelet rich plasma of orally dosed rats); type: in vivo, Wister-Imamich strain male rats; details: rat, 20 mg/kg oral, 6 hours; adenosine-5'-diphosphate 10^-5 M in platelet rich plasma
Procedure: In this Example Wister-Imamich strain male rats weighing 230 ± 30 g which had been bred with the use of a commercial chow, CLEA CE-2 were used.
The rats were divided into groups of five members each, and orally administered with a different ascochlorin derivative as a suspension in 2% gum arabic aqueous solution in a dose of 20 mg/kg.body weight. Six hours after the administration, the blood of each rat was sampled from the heart and after the addition of citric acid, the blood sample was centrifuged at 1,500 r.p.m. for 10 minutes to obtain platelet rich plasma. The anti-aggregation effect when the concentration of adenosine-5'-diphosphatein the platelet rich plasma is ultimately 10^^-5 M is shown in Table II.
As positive controls, ascochlorin, ethyl-α-(p-chlorophenoxy) isobutylate and acetyl salicyclic acid were used. The aggregation inhibition ratio was evaluated in percent by comparing the increase of transmission rate caused by the addition of adenosin-5'-diphosphate to platelet rich plasma of the control group (no medication) with that caused on the groups administered with an ascochlorin derivative which is calculated for 100.

Serum Lipid = test: Hypolipidemic activity: change in level of serum lipid, 30 days, high-fat feed; type: in vivo, Wister strain rats; details: rat
Lipid in liver and aorta = test: Hypolipidemic activity: change of lipid level in organs and aorta abdominalis, 30 days, high-fat feed; type: in vivo, Wister strain rats; details: rat, 45.0 mg/kg oral
Procedure: Wister strain rats weighing 150 ± 20 g were divided into groups of 10 members each and bred with high-fat feed, the same as that used in Example 1. The rats were orally administered ascochlorin, 4-O-methylascochlorin or ethyl-α-(p-chlorophenoxy) isobutylate in a predetermined dose every morning for 30 days. Six hours after the last administration, liver and aorta of each rat were taken out and lipid level in the organs of each of the rats were determined. Lipid present in the liver and aorta was extracted with methanol-chloroform (1:1) by allowing it to stand overnight and the extract was assayed as to lipid level.

[1] = 45.0 mg/kg oral, average ± standard error

CCCOc1c(Cl)c(C)c(C=O)c(O)c1C/C=C(C)/C=C/C1(C)C(C)CCC(=O)C1C (stereo not drawn) [4-O-n-propylascochlorin]
Cholesterol in serum (Cholesterol in serum): 84.3 mg/dL | Aggregation Inhibition Ratio (blood platelet): 56.5%

CCC(C)Oc1c(Cl)c(C)c(C=O)c(O)c1C/C=C(C)/C=C/C1(C)C(C)CCC(=O)C1C (stereo not drawn) [4-O-sec-butylascochlorin]
Cholesterol in serum (Cholesterol in serum): 89.1 mg/dL | Aggregation Inhibition Ratio (blood platelet): 51.1%

CC(/C=C/C1(C)C(C)CCC(=O)C1C)=C\Cc1c(O)c(C=O)c(C)c(Cl)c1OC(C)(C)C (stereo not drawn) [4-O-tert-butylascochlorin]
Cholesterol in serum (Cholesterol in serum): 82.7 mg/dL | Aggregation Inhibition Ratio (blood platelet): 60.5%

CC(=O)Oc1ccccc1C(=O)O [acetyl salicylic acid, reference compound]
Aggregation Inhibition Ratio (blood platelet): 73.1%

CCOC(=O)C(C)(C)Oc1ccc(Cl)cc1 [ethyl-α-(p-chlorophenoxy) isobutylate, reference compound]
Cholesterol in serum (Cholesterol in serum): 103.8 mg/dL | Serum Cholesterol, increasing or reducing ratio based on the control (Serum Lipid; 45.0 mg/kg oral): +7.9 | Serum Free fatty acid, increasing or reducing ratio based on the control (Serum Lipid; 45.0 mg/kg oral): -10.1 | Serum Phospholipid, increasing or reducing ratio based on the control (Serum Lipid; 45.0 mg/kg oral): -0.7 | Serum Triglyceride, increasing or reducing ratio based on the control (Serum Lipid; 45.0 mg/kg oral): -9.2 | Serum β-Lipoprotein, increasing or reducing ratio based on the control (Serum Lipid; 45.0 mg/kg oral): -3.7 | Serum Cholesterol (Serum Lipid; [1]): 115.3 ± 5.5 mg/dL | Serum Free fatty acid (Serum Lipid; [1]): 45.2±1.6 μ eq./dl | Serum Phospholipid (Serum Lipid; [1]): 135.9 ± 13.6 mg/dL | Serum Triglyceride (Serum Lipid; [1]): 72.1 ± 4.4 mg/dL | Serum β-Lipoprotein (Serum Lipid; [1]): 738 ± 46 mg/dL | lowering of lipids in serum, liver and aorta (such effects) (Serum Lipid; oral, groups of Tables IV and V): such effects were not observed | Aggregation Inhibition Ratio (blood platelet): 0% | Cholesterol in Liver, increasing or reducing ratio based on the control (Lipid in liver and aorta): +20.6 | Cholesterol in Tunica intima of aorta abdominalis, increasing or reducing ratio based on the control (Lipid in liver and aorta): -14.7 | Phospholipid in Liver, increasing or reducing ratio based on the control (Lipid in liver and aorta): +13.2 | Triglyceride in Liver, increasing or reducing ratio based on the control (Lipid in liver and aorta): +10.7 | Cholesterol in Liver (Lipid in liver and aorta; average ± standard error): 41.0 ± 4.5 mg/g | Phospholipid in Liver (Lipid in liver and aorta; average ± standard error): 79.5 ± 3.1 mg/g | Triglyceride in Liver (Lipid in liver and aorta; average ± standard error): 24.2 ± 2.2 mg/g
